In PubChem BioAssay (NCI):
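1) Cells in 96-well plates. 2) Compound, 48 h, 5 concentrations. 3) Linear interpolation between surrounding doses. 4) Unreached endpoint = highest concentration. TGI denotes the concentration required for complete inhibition of growth.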

Legend:
Assay in all cases: growth of human tumour cells (NCI), 48 h
786-0 renal = system: 786-0 renal
A498 renal = system: A498 renal
A549 NSCLC = system: A549 NSCLC
ACHN renal = system: ACHN renal
BT-549 breast = system: BT-549 breast
CAKI-1 renal = system: CAKI-1 renal
CCRF-CEM leukemia = system: CCRF-CEM leukemia
COLO 205 colon = system: COLO 205 colon
DU-145 prostate = system: DU-145 prostate
EKVX NSCLC = system: EKVX NSCLC
HCC-2998 colon = system: HCC-2998 colon
HCT-116 colon = system: HCT-116 colon
HCT-15 colon = system: HCT-15 colon
HL-60(TB) leukemia = system: HL-60(TB) leukemia
HOP-62 NSCLC = system: HOP-62 NSCLC
HOP-92 NSCLC = system: HOP-92 NSCLC
HS 578T breast = system: HS 578T breast
IGROV1 ovarian = system: IGROV1 ovarian
KM12 colon = system: KM12 colon
LOX IMVI melanoma = system: LOX IMVI melanoma
M14 melanoma = system: M14 melanoma
MALME-3M melanoma = system: MALME-3M melanoma
MCF7 breast = system: MCF7 breast
MDA-MB-231 breast = system: MDA-MB-231 breast
MDA-MB-435 = system: MDA-MB-435
MDA-N = system: MDA-N
MOLT-4 leukemia = system: MOLT-4 leukemia
NCI-H226 lung = system: NCI-H226 lung
NCI-H23 lung = system: NCI-H23 lung
NCI/ADR-RES ovarian = system: NCI/ADR-RES ovarian
OVCAR-3 ovarian = system: OVCAR-3 ovarian
OVCAR-4 ovarian = system: OVCAR-4 ovarian
OVCAR-5 ovarian = system: OVCAR-5 ovarian
OVCAR-8 ovarian = system: OVCAR-8 ovarian
PC-3 prostate = system: PC-3 prostate
RPMI-8226 leukemia = system: RPMI-8226 leukemia
RXF 393 renal = system: RXF 393 renal
SF-268 CNS = system: SF-268 CNS
SF-295 CNS = system: SF-295 CNS
SF-539 CNS = system: SF-539 CNS
SK-MEL-2 melanoma = system: SK-MEL-2 melanoma
SK-MEL-28 melanoma = system: SK-MEL-28 melanoma
SK-MEL-5 melanoma = system: SK-MEL-5 melanoma
SK-OV-3 ovarian = system: SK-OV-3 ovarian
SN12C renal = system: SN12C renal
SNB-19 CNS = system: SNB-19 CNS
SNB-75 CNS = system: SNB-75 CNS
SW-620 colon = system: SW-620 colon
T-47D breast = system: T-47D breast
TK-10 renal = system: TK-10 renal
U251 CNS = system: U251 CNS
UACC-257 melanoma = system: UACC-257 melanoma
UACC-62 melanoma = system: UACC-62 melanoma
UO-31 renal = system: UO-31 renal
HT29 colon = system: HT29 colon
K-562 leukemia = system: K-562 leukemia
NCI-H522 lung = system: NCI-H522 lung
SR leukemia = system: SR leukemia

## CC[C@H](C)[C@H](NC(=O)N(CCC#N)CCN(CCN(C(=O)N[C@@H](Cc1ccccc1)C(=O)OC)c1ccccc1)C(=O)N[C@H](C(=O)OC)C(C)C)C(=O)OC
786-0 renal
  TGI: 17.1 µM
A498 renal
  TGI: 36.8 µM
A549 NSCLC
  TGI: > 100 µM
ACHN renal
  TGI: 26.7 µM
BT-549 breast
  TGI: 44.7 µM
CAKI-1 renal
  TGI: 35.3 µM
CCRF-CEM leukemia
  TGI: 56.1 µM
COLO 205 colon
  TGI: 52.6 µM
DU-145 prostate
  TGI: 41.2 µM
EKVX NSCLC
  TGI: 69.2 µM
HCC-2998 colon
  TGI: 39.5 µM
HCT-116 colon
  TGI: 36 µM
HCT-15 colon
  TGI: 51.6 µM
HL-60(TB) leukemia
  TGI: 4.24 µM
HOP-62 NSCLC
  TGI: 44.9 µM
HOP-92 NSCLC
  TGI: 23.3 µM
HS 578T breast
  TGI: 86.6 µM
IGROV1 ovarian
  TGI: 45.9 µM
KM12 colon
  TGI: 39.7 µM
LOX IMVI melanoma
  TGI: 37.4 µM
M14 melanoma
  TGI: 44.8 µM
MALME-3M melanoma
  TGI: 35 µM
MCF7 breast
  TGI: 74.6 µM
MDA-MB-231 breast
  TGI: 47.1 µM
MDA-MB-435
  TGI: 36.3 µM
MDA-N
  TGI: 31.7 µM
MOLT-4 leukemia
  TGI: 24.7 µM
NCI-H226 lung
  TGI: 48.8 µM
NCI-H23 lung
  TGI: 40.1 µM
NCI/ADR-RES ovarian
  TGI: 81.7 µM
OVCAR-3 ovarian
  TGI: 39.7 µM
OVCAR-4 ovarian
  TGI: 62 µM
OVCAR-5 ovarian
  TGI: 57.3 µM
OVCAR-8 ovarian
  TGI: 65.4 µM
PC-3 prostate
  TGI: 47.7 µM
RPMI-8226 leukemia
  TGI: 29.1 µM
RXF 393 renal
  TGI: 37.8 µM
SF-268 CNS
  TGI: 44.4 µM
SF-295 CNS
  TGI: 37.9 µM
SF-539 CNS
  TGI: 49.1 µM
SK-MEL-2 melanoma
  TGI: 43.4 µM
SK-MEL-28 melanoma
  TGI: 29.7 µM
SK-MEL-5 melanoma
  TGI: 38.4 µM
SK-OV-3 ovarian
  TGI: 41.2 µM
SN12C renal
  TGI: 54.5 µM
SNB-19 CNS
  TGI: 35.9 µM
SNB-75 CNS
  TGI: 43.1 µM
SW-620 colon
  TGI: 64.8 µM
T-47D breast
  TGI: 47.2 µM
TK-10 renal
  TGI: 38.5 µM
U251 CNS
  TGI: 36.1 µM
UACC-257 melanoma
  TGI: 29 µM
UACC-62 melanoma
  TGI: 28.6 µM
UO-31 renal
  TGI: 33.8 µM

## O=S(=O)(O)c1ccc2c(N=Nc3cccc4ccccc34)c(O)ccc2c1
786-0 renal
  TGI: > 100 µM
A498 renal
  TGI: > 100 µM
A549 NSCLC
  TGI: > 100 µM
ACHN renal
  TGI: > 100 µM
BT-549 breast
  TGI: > 100 µM
CAKI-1 renal
  TGI: > 100 µM
CCRF-CEM leukemia
  TGI: > 100 µM
COLO 205 colon
  TGI: > 100 µM
DU-145 prostate
  TGI: > 100 µM
EKVX NSCLC
  TGI: > 100 µM
HCT-116 colon
  TGI: > 100 µM
HCT-15 colon
  TGI: > 100 µM
HL-60(TB) leukemia
  TGI: > 100 µM
HOP-62 NSCLC
  TGI: > 100 µM
HOP-92 NSCLC
  TGI: > 100 µM
HS 578T breast
  TGI: > 100 µM
HT29 colon
  TGI: > 100 µM
IGROV1 ovarian
  TGI: > 100 µM
K-562 leukemia
  TGI: > 100 µM
KM12 colon
  TGI: > 100 µM
LOX IMVI melanoma
  TGI: > 100 µM
M14 melanoma
  TGI: > 100 µM
MALME-3M melanoma
  TGI: > 100 µM
MDA-MB-231 breast
  TGI: > 100 µM
MDA-MB-435
  TGI: > 100 µM
MDA-N
  TGI: > 100 µM
MOLT-4 leukemia
  TGI: > 100 µM
NCI-H226 lung
  TGI: > 100 µM
NCI-H23 lung
  TGI: > 100 µM
NCI-H522 lung
  TGI: > 100 µM
NCI/ADR-RES ovarian
  TGI: > 100 µM
OVCAR-3 ovarian
  TGI: > 100 µM
OVCAR-4 ovarian
  TGI: > 100 µM
OVCAR-5 ovarian
  TGI: > 100 µM
OVCAR-8 ovarian
  TGI: > 100 µM
PC-3 prostate
  TGI: > 100 µM
RPMI-8226 leukemia
  TGI: > 100 µM
RXF 393 renal
  TGI: > 100 µM
SF-268 CNS
  TGI: > 100 µM
SF-295 CNS
  TGI: > 100 µM
SK-MEL-2 melanoma
  TGI: > 100 µM
SK-MEL-28 melanoma
  TGI: > 100 µM
SK-MEL-5 melanoma
  TGI: > 100 µM
SK-OV-3 ovarian
  TGI: > 100 µM
SN12C renal
  TGI: > 100 µM
SNB-19 CNS
  TGI: > 100 µM
SNB-75 CNS
  TGI: > 100 µM
SR leukemia
  TGI: > 100 µM
SW-620 colon
  TGI: > 100 µM
T-47D breast
  TGI: > 100 µM
TK-10 renal
  TGI: > 100 µM
U251 CNS
  TGI: > 100 µM
UACC-257 melanoma
  TGI: > 100 µM
UACC-62 melanoma
  TGI: > 100 µM
UO-31 renal
  TGI: > 100 µM
